Entries after “also recorded” stand apart in the source; their conditions may differ.
Tests used:
SARM1 [1] = target: T1, SARM1 (Homo sapiens, UniProt Q6SZW1); conditions: cited from earlier work; for SARM1 activation in in vitro assays: Zhao et al., 2019; for SARM1 activation on binding in the allosteric site (ARM domain): Figley et al.
T1 sequence (Q6SZW1 28-724): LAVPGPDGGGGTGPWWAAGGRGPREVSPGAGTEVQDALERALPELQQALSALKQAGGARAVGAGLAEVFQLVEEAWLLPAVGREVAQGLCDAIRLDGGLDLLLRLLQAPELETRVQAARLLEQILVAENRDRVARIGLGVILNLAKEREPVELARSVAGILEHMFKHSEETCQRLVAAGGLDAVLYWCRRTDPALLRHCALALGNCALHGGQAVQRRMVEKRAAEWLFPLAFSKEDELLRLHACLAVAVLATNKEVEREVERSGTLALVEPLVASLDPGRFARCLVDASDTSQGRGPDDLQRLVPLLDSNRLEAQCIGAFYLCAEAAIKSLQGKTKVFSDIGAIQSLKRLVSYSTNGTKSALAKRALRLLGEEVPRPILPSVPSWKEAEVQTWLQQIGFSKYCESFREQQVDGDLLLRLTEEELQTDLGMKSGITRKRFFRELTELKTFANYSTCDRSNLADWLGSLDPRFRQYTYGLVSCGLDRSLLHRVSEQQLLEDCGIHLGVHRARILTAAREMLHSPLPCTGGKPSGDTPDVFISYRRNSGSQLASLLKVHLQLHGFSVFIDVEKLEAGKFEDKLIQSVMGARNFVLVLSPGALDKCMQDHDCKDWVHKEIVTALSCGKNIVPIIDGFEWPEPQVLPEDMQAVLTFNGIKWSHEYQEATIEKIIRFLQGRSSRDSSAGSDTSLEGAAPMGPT

neuronal cultures = conditions: Loreto et al., 2021, Wu et al.; cited from earlier work
[2] = test system: expanded mouse Schwann cells; assay: Cell death in expanded mouse Schwann cells passaged three times (phase contrast, propidium iodide); assay type: cell-based; conditions: 250 μM 3-AP for 72 hours vs water; Schwann cells passaged three times in proliferative medium
Protocol: Mouse SCs were passaged on PLL/laminin coated dishes in the presence of low serum (0.5% horse serum), 10 ng/ml Bneuregulin1 (BNRG1), and a low concentration cyclic adenosine monophosphate (CAMP) elevating signal, such as 2 μM forskolin or 100 μM dibutryl cAMP (Arthur-Farraj et al., 2011). Full protocol is described in (Mutschler et al., 2023).

Schwann cells = assay: Intracellular NAD+ in Schwann cells (NAD-glo assay); assay type: cell-based, mouse; conditions: 250 μM 3AP, 72 hours, compared to DMSO control, listed as 3AP
Protocol: (§1) Freshly plated mouse Schwann cells were obtained from P2 sciatic and brachial nerves. Nerves were digested with trypsin and collagenase, centrifuged and plated on laminin/Poly-L-lysine coated glass coverslips in defined medium as previously described (Arthur-Farraj et al., 2011).
[…] Protein was extracted using Pierce™ IP Lysis Buffer supplemented with cOmplete™ Mini EDTA-free Protease Inhibitor Cocktail, and a BCA assay carried out to determine protein concentration. All samples were diluted to 0.5 μg/μL. The NAD-glo assay was performed according to manufacturer's instruction of the NAD^+/NADH-Glo™ assay by Promega (G9071). In short, 25 μL of sample were incubated with 12.5 μL 0.4M HCl at 60° C. for 15 min, before 12.5 μL 0.5M Tris base were added. 10 μL NAD^+ standards or sample were then mixed with 10 μL NAD-glo master mix (1 ml luciferin detection reagent, 5 μl reductase, 5 μl reductase substrate, 5 μl NAD^+ cycling enzyme, 25 μl NAD^+ cycling substrate) and incubated at RT for 40 min. Luminescence was read using a GloMax® Explorer microplate reader and NAD^+ concentrations determined relative to a NAD^+ standard curve.

[3] = test system: freshly plated P2 mouse Schwann cells; assay: Cell death in freshly plated P2 mouse Schwann cells (propidium iodide, DAPI, SOX10); assay type: cell-based; conditions: 250 μM 3-AP for 72 hours vs water
Protocol: as §1
Sciatic and optic nerves were dissected from Wt and Sarm1 KO mice and directly embedded in O.C.T. compound, without fixing, and stored at −80° C. until ready for cryosectioning. Cryosections at 5 μm thick were collected onto SuperFrost plus slides. These slides were post-fixed in 4% paraformaldehyde (PFA) at room temperature for 10 mins followed by three washes of 5 mins each with 1×PBS. The slides were then immersed in 100% methanol at −20° C. for 10 mins, followed by three washes of 5 mins each with 1×PBS. The slides were then blocked in 5% horse serum (HS)/0.2% Triton x-100/PBS for 30 mins at room temperature. Primary antibodies were diluted in blocking solution and slides were incubated overnight at 4° C. The following day, the slides were washed once for 5 mins with 1×PBS, twice for 5 mins with 0.1% tween/PBS and finally once again for 5 mins with 1×PBS before adding secondary antibodies. The corresponding secondary antibodies were diluted at 1:500 along with DAPI at 1:2000 for 2 hrs at room temperature and kept in the dark. […]

SARM1 [4] = target: T1, SARM1; conditions: Zhao et al., 2019; cited from earlier work

CC(=O)c1cccnc1 [3-AP, 3-acetylpyridine]
SARM1 activity on interaction with active site (TIR domain) for base exchange reaction (SARM1 [1]; Loreto et al., 2021, Angeletti et al., 2022, Wu et al.): increase in SARM1 activity
effect of high dose on neuronal cultures (neuronal cultures): axonal degeneration and cell death within hours
cell death by propidium iodide (P.I.) staining and phase contrast [2]: susceptible to cellular dysfunction and death; also recorded: substantial increase in P.I. staining
Intracellular NAD+ levels (Schwann cells): do not change
cell death judged by propidium iodide (P.I) and DAPI nuclear staining and SOX10 immunocytochemistry [3]: completely insensitive; also recorded: no cell death

NC(=O)c1ccc[n+]([C@@H]2O[C@H](COP(O)(O)=S)C(O)C2O)c1 (some centres unmarked) [S-NMN]
SARM1 activation in in vitro assays (SARM1 [1]): can activate SARM1

NC(=O)c1ccc[n+]([C@@H]2O[C@H](COP(=O)(O)O)C(O)C2O)c1 (some centres unmarked) [NMN, Nicotinamide Mononucleotide]
SARM1 activation on binding in the allosteric site (ARM domain) (SARM1 [1]; Loreto et al., 2021): potently activates it

O=C(NCc1ccc[n+](C2OC(COP(=O)([O-])O)C(O)C2O)c1)Nc1ccc([N+](=O)[O-])cc1 (centres unmarked) [VMN, Vacor Mononucleotide]
SARM1 activation on binding in the allosteric site (ARM domain) (SARM1 [1]; Loreto et al., 2021): potently activates SARM1

NC(=O)c1ccc[n+]([C@@H]2O[C@H](COP(=O)(O)O)C(O)C2F)c1 (some centres unmarked) [CZ-17, ara-F-NMN]
SARM1 activation in in vitro assays (SARM1 [1]): can activate SARM1

sulfo-ara-F-NMN [CZ-48]
SARM1 activation in cells (SARM1 [4]): can activate SARM1
SARM1 activation in in vitro assays (SARM1 [1]): can activate SARM1

From patent publication US20260166017A1, “SARM1 INHIBITORS FOR USE IN THERAPY AND COSMETICS” (priority 2022, published 2026)
